According to patent US11098040B2, “Compounds and methods of use” (Ferro Therapeutics, Inc., priority 2018, dated 2021):
Values joined by “and” are separate entries in the source; they are usually repeats but may differ in a detail not shown here. Equal values may be shown once. One block for each compound: values may come before it.

What was measured:
AsPC-1 = assay: Cell viability assay (CellTiter Glo), pancreatic adenocarcinoma AsPC-1; type: cell-based; settings: Homo sapiens, ASPC1; pancreatic adenocarcinoma, ascites, 96 hours, CellTiter Glo; read-out: IC50 AsPC-1
Summary of the method: (§1)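 MiaPaCa-2 and AsPC-1 cells were seeded overnight at 37 °C and exposed for 96 h to 9-point, 3-fold dilutions from up to 30 μM (final DMSO ≤0.25%). CellTiter Glo luminescence was read, and inhibition was calculated relative to DMSO-only cells. IC50, relative IC50 or % top inhibition was derived.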

HCC1954 = assay: Cell viability assay (CellTiter Glo), breast cancer cell line HCC1954; type: cell-based; settings: Homo sapiens, 96 hours
Experimental: (§2) Cell viability assay was performed to assess the potency of the compounds in human cancer cell lines KP4 (pancreatic ductal adenocarcinoma), MiaPaCa-2 (pancreatic carcinoma), AsPC-1 (pancreatic adenocarcinoma, ascites), 143B (osteosarcoma), and SJSA-1 (osteosarcoma). Selected compounds were also assayed in a human breast epithelial cell line MCF-10A, a nontumorigenic cell line as a control to assess differential activity. Cells at a density of 500-5,000 cells/well were seeded in 96-well plates and incubated at 37° C. overnight. A series of 9 different concentrations of compound stocks (500×) were created by 3-fold serial dilution in DMSO. These compounds were further diluted in culture media and then added to cells so that the final DMSO concentration was equal to 0.25% or less. After 96 hours of incubation, 50 μL of CellTiter Glo reagent (Promega) was added to each well and luminescence was measured after 10 minutes using EnVision (PerkinElmer). Compounds titrated from top concentration of up to 30 μM. The select compounds were tested initially from 30 μM as the top concentration in duplicates (range of 4.6 nM-30 μM). […] Luminescence from cells treated with DMSO alone was set as Max and % of inhibition was calculated as follows: Inhibition %=(Max-Sample value)/Max*100. Data was analyzed using XL-fit software (ID Business Solutions Ltd.). IC50, relative IC50, or % of top inhibition was calculated.
(§3) A group of selected analogs were further profiled in cell viability assays described above in multiple additional cancer cell lines, including lung cancer, melanoma, hepatocarcinoma, pancreatic cancer, leukemia, lymphoma, ovarian cancer, breast cancer, colon cancer, and sarcoma cell lines. Initial cell seeding numbers were adjusted for each cell line. Typically, 500-5000 cells/well for adherent cells and 5000-10000/well for suspension cells were seeded in 96-well plates.

HT-1080 luc2 = assay: Cell viability assay (CellTiter Glo), fibrosarcoma HT-1080 luc2; type: cell-based; settings: Homo sapiens, fibrosarcoma expressing a luciferase gene, 96 hours, CellTiter Glo, read-out: IC50 HT-1080 luc2
Experimental: as §2, §3
The results of the assay in sarcoma cell lines are given in Table 21a for HT-1080 luc2 (fibrosarcoma expressing a luciferase gene), Table 21b for 143B (osteosarcoma), and Table 21c for SJSA-1 (osteosarcoma).

REC-1 = assay: Cell viability assay (CellTiter Glo), lymphoma cell line REC-1; type: cell-based; settings: Homo sapiens, Rec1, 96 hours
Experimental: as §2, §3

SK-OV-3 = assay: Cell viability assay (CellTiter Glo), ovarian cancer cell line SK-OV-3; type: cell-based; settings: Homo sapiens, 96 hours
Experimental: as §2, §3

HT29 = assay: Cell viability assay (CellTiter Glo), colon cancer cell line HT29; type: cell-based; settings: Homo sapiens, HT-29, 96 hours
Experimental: as §2, §3

Huh7 = assay: Cell viability assay (CellTiter Glo), hepatocellular carcinoma Huh7; type: cell-based; settings: Homo sapiens, Huh-7, 96 hours
Experimental: as §2, §3

MDA-MB-435S = assay: Cell viability assay (CellTiter Glo), melanoma cell line MDA-MB-435S; type: cell-based; settings: Homo sapiens, 96 hours
Experimental: as §2, §3

in vivo = settings: male, Balb/c nude, mouse, ip, 15 mg/kg, Calculated Concentration
Experimental: (§6) Test compounds were dissolved either in 20% (w/w) sulfobutylether-β-cyclodextrin (SBECD) pH 3-7 aqueous solution, or 5% DMSO/(30-50%) PEG400/(65-45%) water. Test compound dosing solutions were administered intraperitoneally to Balb/c nude male mice. Blood samples were collected at various time points with EDTA-K2 as anti-coagulant on ice, and centrifuged to obtain plasma samples. The plasma samples were stored at −20° C. until analysis.
(§7) Into 10 μL of test compound plasma samples were added 2 μL DMSO then 200 μL of 5 ng/mL internal standard (VTSD) (Terfenadine) in MeOH/acetonitrile. The mixture was vortexed for 1 minute and centrifuged at 4000 rpm for 15 minutes. Calibration standards were prepared by spiking known amount of test compounds into blank plasma samples. The supernatant solution was diluted 5 times with Acetonitrile/H2O (with 0.1% formic acid, 1:1, v/v), and this is the solution for LC-MS/MS analysis. The limit of quantification (LOQ) was 1 ng/mL.
(§8) Typical HPLC mobile phases were mobile phase of 5 mM NH4OAc (with 0.05% formic acid); and mobile phase B of acetonitrile (with 0.1% formic acid). The HPLC column was Kinetex C18 (30 mm×3.00 mm). Mass spectrometer was tuned for each compound in the Multiple Reaction Monitoring (MRM) scanning mode and in the electrospray ionization mode. The lower limit of quantification was 1-10 ng.
(§9) In this study, K601 (RSL3) was formulated in 5% DMSO/30% PEG 400/65% water at 1.5 mg/mL. The volume of injection via intraperitoneal route was 10 mL/kg for a dose of 15 mg/kg. […] The limit of quantification (LOQ) was 1 ng/mL.
(§10) In this study, the compound was formulated in 20% (w/w) sulfobutylether-β-cyclodextrin (SBECD), pH 5 aqueous solution at 1.5 mg/mL. The volume of injection via intraperitoneal route was 10 mL/kg for a dose of 15 mg/kg. The concentration of test compounds in plasma were analyzed by LC-MS with the method described above. The limit of quantification was 1 ng/mL.
(§11) It was formulated in 5% DMSO/50% PEG400/45% Water pH adjusted to 4 with HCl as an aqueous solution at 1.0 mg/mL. The volume of injection via intraperitoneal route was 15 mL/kg for a dose of 15 mg/kg. The concentration of test compounds in plasma were analyzed by LC-MS with the method described above. The limit of quantification was 1 ng/mL. […] The limit of quantification was 1 ng/mL.
(§12) Compounds 24 and 28 were formulated in 20% (w/w) sulfobutylether-β-cyclodextrin (SBECD) with pH 3 and pH 4, respectively, as an aqueous solution at 1.0 mg/mL. Compound 67 was in 5% DMSO/50% PEG 400/45% water pH 4 (adjusted with 12 N HCl) aqueous solution at 1.0 mg/mL. The injection volume via intraperitoneal route was 10 mL/kg for a dose of 15 mg/kg. The concentration of test compounds in plasma were analyzed by LC-MS with the method described above. The limit of quantification was 1 ng/mL.

PANC1 = assay: Cell viability assay (CellTiter Glo), pancreatic cell line PANC1; type: cell-based; settings: Homo sapiens, PANC-1, 96 hours
Experimental: as §2, §3
The results of the assay in the pancreatic cell lines are given in Table 15a for PANC1, Table 15b for MiaPaCa-2, and Table 15c for AsPC-1.

H2228 = assay: Cell viability assay (CellTiter Glo), lung cancer cell line H2228; type: cell-based; settings: Homo sapiens, NCI-H2228; lung cancer cell line, 96 hours, CellTiter Glo; read-out: IC50 H2228
Experimental: as §2, §3

SJSA-1 = assay: Cell viability assay (CellTiter Glo), osteosarcoma SJSA-1; type: cell-based; settings: Homo sapiens, 96 hours
Summary of the method: (§4)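 Cells seeded at 500-5,000/well overnight, then 96 h exposure to 9-point 3-fold dilutions from up to 30 μM (4.6 nM-30 μM), final DMSO ≤0.25%. Viability by CellTiter Glo luminescence; inhibition relative to DMSO-only cells, yielding IC50, relative IC50 or % top inhibition.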

HL-60 = assay: Cell viability assay (CellTiter Glo), leukemia cell line HL-60; type: cell-based; settings: Homo sapiens, 96 hours
Experimental: as §2, §3
(§5) The results of the assay in the leukemia cell lines are given in Table 16a for MV-4-1 and Table 16b for HL-60 and Kasumi-1.

Raji = assay: Cell viability assay (CellTiter Glo), lymphoma cell line Raji; type: cell-based; settings: Homo sapiens, 96 hours
Experimental: as §2, §3

MCF-10A = assay: Cell viability assay (CellTiter Glo), non-tumorigenic breast epithelial cell line MCF-10A; type: cell-based; settings: Homo sapiens, 96 hours
Summary of the method: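 MCF-10A cells (500-5,000/well) treated 96 h at 37° C with 9-point 3-fold dilutions from up to 30 μM, ≤0.25% DMSO, in duplicate. Viability by CellTiter Glo luminescence; % inhibition versus DMSO-only wells gave IC50, relative IC50 or % top inhibition. Paclitaxel positive control.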

143B = assay: Cell viability assay (CellTiter Glo), osteosarcoma 143B; type: cell-based; settings: Homo sapiens, 96 h, osteosarcoma, 96 hours, CellTiter Glo, read-out: IC50 143B
Summary of the method: as §4

MV-4-1 = assay: Cell viability assay (CellTiter Glo), leukemia cell line MV-4-1; type: cell-based; settings: 96 hours
Experimental: as §2, §3, §5

Kasumi-1 = assay: Cell viability assay (CellTiter Glo), leukemia cell line Kasumi-1; type: cell-based; settings: Homo sapiens, 96 hours
Experimental: as §2, §3, §5

H1299 = assay: Cell viability assay (CellTiter Glo), lung cancer cell line H1299; type: cell-based; settings: Homo sapiens, NCI-H1299, 96 hours
Experimental: as §2, §3

[1] = mouse, in vivo, ip, 15 mg/kg
Experimental: as §6, §7, §8, §9, §10, §11, §12

SW480 = assay: Cell viability assay (CellTiter Glo), colon cancer cell line SW480; type: cell-based; settings: Homo sapiens, 96 hours
Experimental: as §2, §3

MiaPaCa-2 = assay: Cell viability assay (CellTiter Glo), pancreatic carcinoma MiaPaCa-2; type: cell-based; settings: Homo sapiens, MIA PaCa-2; pancreatic carcinoma, 96 hours, CellTiter Glo; read-out: IC50 MiaPaCa-2
Summary of the method: as §1

[2] = Pharmacokinetic (PK) studies via intravenous infusion, Sprague-Dawley rat; type: in vivo; settings: male, plasma, one rat
Experimental: Test compound dosing solutions were administered via intravenous infusion to Sprague-Dawley male rat.
Into 50 μL of test compound plasma samples were added 5 μL DMSO then 200 μL of 25 ng/mL internal standard (ITSD) (Verapamil) in MeOH/acetonitrile (1:1, v/v). […] The limit of quantification (LOQ) was 1 ng/mL.
The lower limit of quantification was 1-10 ng. A typical HPLC gradient table is described below: […]
The PK profiles of compound 24 and compound 28 are shown below. […] The volume of injection via intravenous infusion route was adjusted for a dose of 2, 4 and 8 mg/kg. […] The limit of quantification was 1 ng/mL.

[3] = Pharmacokinetic (PK) studies in Balb/C nude mice via intraperitoneal injection; settings: plasma; for concentration at 0.5 h / concentration at 4 h: Calculated Concentration; for concentration at 0.5 h / concentration at 4 h / Calculated Concentration: IP 15 mg/kg, Balb/C nude mice
Experimental: as §6, §7, §8, §9, §10, §11, §12

[4] = male, Balb/c nude, mouse, ip, 15 mg/kg

- IC50 (AsPC-1): 19 nM
- IC50 (HCC1954): 39 nM
- IC50 (HT-1080 luc2): 15 nM
- IC50 (REC-1): 33 nM
- IC50 (SK-OV-3): 17 nM
- IC50 (HT29): 87 nM
- IC50 (Huh7): 22 nM
- IC50 (MDA-MB-435S): 4 nM
- concentration at 0.5 h (in vivo): 332 ng/mL
- concentration at 1 h (in vivo): 355 ng/mL
- concentration at 2 h (in vivo): 50.5 ng/mL
- concentration at 4 h (in vivo): 3.41 ng/mL
- concentration at 0.5 h (in vivo; Mean): 464 ng/mL
- concentration at 1 h (in vivo; Mean): 317 ng/mL
- concentration at 2 h (in vivo; Mean): 44.5 ng/mL
- concentration at 4 h (in vivo; Mean): 4.56 ng/mL
- IC50 (PANC1): 19 nM
- IC50 (H2228): 18 nM
- IC50 (SJSA-1): 13 nM
- IC50 (HL-60): 16 nM
- IC50 (Raji): 9 nM
- IC50 (143B): 4 nM
- IC50 (MV-4-1): 21 nM
- IC50 (Kasumi-1): 88 nM
- IC50 (H1299): 3 nM
- exposure (Cmax, AUC) compared with K601 (RSL3) [1]: higher exposure
- IC50 (SW480): 167 nM
- IC50 (MiaPaCa-2): 2 nM
- concentration at 1.0167 hr ([2]; 1 hour-IV infusion 2 mg/kg): 51.7 ng/mL
- concentration at 1.0833 hr ([2]; 1 hour-IV infusion 2 mg/kg): 14.1 ng/mL
- concentration at 1.25 hr ([2]; 1 hour-IV infusion 2 mg/kg): 4.95 ng/mL
- concentration at 1.5 h ([2]; 1 hour-IV infusion 2 mg/kg): 2.18 ng/mL
- concentration at 1.0167 hr ([2]; 1 hour-IV infusion 4 mg/kg): 159 ng/mL
- concentration at 1.0833 hr ([2]; 1 hour-IV infusion 4 mg/kg): 36.4 ng/mL
- concentration at 1.25 hr ([2]; 1 hour-IV infusion 4 mg/kg): 13.8 ng/mL
- concentration at 1.5 h ([2]; 1 hour-IV infusion 4 mg/kg): 5.07 ng/mL
- concentration at 2 h ([2]; 1 hour-IV infusion 4 mg/kg): 2.62 ng/mL
- concentration at 1.0167 hr ([2]; 1 hour-IV infusion 8 mg/kg): 259 ng/mL
- concentration at 1.0833 hr ([2]; 1 hour-IV infusion 8 mg/kg): 97.5 ng/mL
- concentration at 1.25 hr ([2]; 1 hour-IV infusion 8 mg/kg): 34 ng/mL
- concentration at 1.5 h ([2]; 1 hour-IV infusion 8 mg/kg): 17.3 ng/mL
- concentration at 2 h ([2]; 1 hour-IV infusion 8 mg/kg): 6.52 ng/mL
- concentration at 3 h ([2]; 1 hour-IV infusion 8 mg/kg, 3 hr): 2.92 ng/mL
Compound: COC(=O)[C@H]1Cc2c([nH]c3ccccc23)[C@H](c2ccc(S(=O)(=O)N[C@]34C[C@H]5C[C@H](C[C@H](C5)C3)C4)cc2)N1C(=O)CCl [Example 24]
- IC50 (MCF-10A): 410 nM

- IC50 (AsPC-1): 105 nM
- IC50 (HCC1954): 180 nM
- IC50 (HT-1080 luc2): 27 nM
- IC50 (REC-1): 227 nM
- IC50 (SK-OV-3): 142 nM
- IC50 (HT29): 832 nM
- IC50 (Huh7): 242 nM
- IC50 (MDA-MB-435S): 37 nM
- IC50 (PANC1): 116 nM
- IC50 (H2228): 75 nM
- IC50 (SJSA-1): 67 nM
- IC50 (HL-60): 104 nM
- IC50 (Raji): 92 nM
- IC50 (143B): 32 nM
- IC50 (MV-4-1): 258 nM
- IC50 (Kasumi-1): 203 nM
- IC50 (H1299): 35 nM
- IC50 (SW480): 619 nM
- IC50 (MiaPaCa-2): 15 nM
- AUC [3, 4]: 1.28 ng·h/mL
- AUC(0-t) [3, 4]: 1.28 ng·h/mL
- Cmax [3, 4]: 1.33 ng/mL
- Tmax [3, 4]: 1.67 h
- concentration at 0.5 h ([3]; male, Balb/c nude, mouse, ip, 15 mg/kg, 0.5 h, individual mice): 1.18 ng/mL
- concentration at 4 h ([3]; male, Balb/c nude, mouse, ip, 15 mg/kg, 4 h, individual mice): 1.63 ng/mL
- concentration at 0.5 h ([3]; male, Balb/c nude, mouse, ip, 15 mg/kg, Mean, 0.5 h, mean of 3 mice): 0.783 ng/mL
- concentration at 4 h ([3]; male, Balb/c nude, mouse, ip, 15 mg/kg, Mean, 4 h, mean of 3 mice): 0.543 ng/mL
Compound: COC(=O)c1ccc([C@H]2c3[nH]c4ccccc4c3C[C@H](C(=O)OC)N2C(=O)CCl)cc1 [Example K601, RSL3, reference compound]
- IC50 (MCF-10A): 2950 nM
- Calculated Concentration ([3]; 0.5 h, individual mice, 15 mg/kg): BLOQ (BLOQ = Below limit of quantification (which was 1 ng/mL)) and 1.17 ng/mL
- Calculated Concentration ([3]; 1 h, individual mice): BLOQ (BLOQ = Below limit of quantification (which was 1 ng/mL))
- Calculated Concentration ([3]; 2 h, individual mice): BLOQ (BLOQ = Below limit of quantification (which was 1 ng/mL))
- Calculated Concentration ([3]; 4 h, individual mice, 15 mg/kg): BLOQ (BLOQ = Below limit of quantification (which was 1 ng/mL))
